Experimental data published in patent US20150208661A1, “METHOD FOR PREPARING BROMINE BASED BIOCIDAL AQUEOUS COMPOSITIONS” (BROMINE COMPOUNDS LTD., priority 2012, published 2015).

Tests used:
[1] = test system: Pseudomonas aeruginosa (ATCC 15442); experiment: Biocidal activity against simulated biofilm system (alginate beads with entrapped bacteria); format: cell-based; settings: pH 8
Excerpt: A biofilm simulation system, alginate beads, developed by the Biofilm Bozeman Institute Montana (Grobe, K. J, Zahller, J and Stewart P. S., 2002 in “Role of dose concentration in biocide efficacy against Pseudomonas aeruginosa Biofilms”, J. Industrial Microbiology & Biotechnology, vol. 29, pp 10-15), was used in order to evaluate the efficacy of the biocide solution against biofilm.
The biofilm simulation was created by entrapping bacteria in alginate gel beads. A plate of R2A agar was streaked with Pseudomonas aeruginosa (ATCC 15442) and incubated at 35° C. overnight. Buffer phosphate at pH 7.2 was used to scrap off the bacteria from the agar plate and to create a suspension. The bacterial suspension was mixed with an equal volume of an aqueous 4% sodium alginate solution, to make a final 2% alginate solution. The alginate and bacterial slurry were placed in a 50 ml syringe attached to a gauge needle, connected to a compressed air tank, allowing the syringe to be pressurized. At 20 psig pressure a stream of small drops was forced out and dropped into a stirred solution of 50 mM CaCl2. The Ca^+2 cross linked the alginate, and semi solid beads with entrapped bacterial cells were formed. The beads were allowed to stir in the CaCl2 solution for about 20 minutes, and then rinsed in a dilute 5 mM CaCl2 solution. Several flasks containing 100 beads each were incubated overnight at 35° C. on a rotating shaker in a buffer solution (at pH 8) with 5 mM addition of CaCl2 to maintain the beads structure. The resulting beads diameter was about 2 mm.
At the beginning of the experiment, the supernatant of the beads buffer suspension containing 5 mM CaCl2 was decanted and replaced by the 100 ml biocide solution with the required concentration (at pH 8). After different interval contact times, 10 beads were removed and placed in a 5 g/l sodium thiosulfate solution containing 50 mM sodium citrate. The sodium citrate was used to dissolve the alginate gel and release the bacteria into the solution. The neutralizer-citrate solution was placed in the refrigerator for 2 hours, than diluted and placed on R2A agar plates using pour plate technique. The plates were incubated at 35° C. for 24-48 hours and counted. The efficacy and toxicity of the neutralizer were checked as well as a control experiment without biocide addition. Four concentrations of active chlorine (0.5, 1, 2.5 and 5 ppm) were tested at four different contact times (5, 15, 30, and 60 min). Table 1-2 describe the surviving colony forming units (CFU) of the bacteria after different biocides treatment at different contact times.

[2] = test system: Inoculum of bacteria (activated sludge taken from domestic waste water treatment plant in Haifa); experiment: Biocidal efficacy under different TOC loading; format: cell-based; settings: 30 min, pH 7
Experimental: Inoculum of bacteria (activated sludge taken from domestic waste water treatment plant in Haifa), R2A agar for general counting, and Tryptone were employed. The biocidal efficacy of the antifouling composition at different organic loads of 0, 10, 30 and 50 ppm TOC, was examined under different biocidal concentrations (5 and 10 ppm) at pH 7.
1) 1 ml of inoculum with the appropriate biocide concentration (5, 10 ppm) was added to tryptone solutions, 100 ml each, with different concentrations of TOC (0, 10, 30 and 50 ppm). […] The result stands for the bacteria count at zero time. 3) After 30 min. of shaking (100 rpm), 1 ml of each sample was transferred to a tube filled with 9 ml of the neutralization solution […].
An aliquot of 1 ml was taken from this solution and added to another tube containing 9 ml of buffer solution. The solution was mixed under vortex. This operation was repeated for 4 more times.
4) 1 ml from the two lowest dilutions was inoculated on a R2A agar (by the pour plate method). 5) After the plates were incubated at 25° C. for 5-7 days, the bacteria count was recorded.

OCl [NaOCl, sodium hypochlorite]
survival of bacteria (CFU) ([1]; biocide 0.5 ppm as Cl2, contact time 0 min): 1.20E+07 CFU | survival of bacteria (CFU) ([1]; biocide 0.5 ppm as Cl2, contact time 5 min): 6.73E+06 CFU | survival of bacteria (CFU) ([1]; biocide 0.5 ppm as Cl2, contact time 15 min): 6.48E+06 CFU | survival of bacteria (CFU) ([1]; biocide 0.5 ppm as Cl2, contact time 30 min): 6.53E+06 CFU | survival of bacteria (CFU) ([1]; biocide 0.5 ppm as Cl2, contact time 60 min): 4.08E+06 CFU | survival of bacteria (CFU) ([1]; biocide 1 ppm as Cl2, contact time 0 min): 1.20E+07 CFU | survival of bacteria (CFU) ([1]; biocide 1 ppm as Cl2, contact time 5 min): 7.25E+06 CFU | survival of bacteria (CFU) ([1]; biocide 1 ppm as Cl2, contact time 15 min): 4.18E+06 CFU | survival of bacteria (CFU) ([1]; biocide 1 ppm as Cl2, contact time 30 min): 4.28E+06 CFU | survival of bacteria (CFU) ([1]; biocide 1 ppm as Cl2, contact time 60 min): 1.81E+06 CFU | survival of bacteria (CFU) ([1]; biocide 2.5 ppm as Cl2, contact time 0 min): 1.20E+07 CFU | survival of bacteria (CFU) ([1]; biocide 2.5 ppm as Cl2, contact time 5 min): 6.40E+06 CFU | survival of bacteria (CFU) ([1]; biocide 2.5 ppm as Cl2, contact time 15 min): 3.10E+06 CFU | survival of bacteria (CFU) ([1]; biocide 2.5 ppm as Cl2, contact time 30 min): 8.28E+05 CFU | survival of bacteria (CFU) ([1]; biocide 2.5 ppm as Cl2, contact time 60 min): 9.38E+04 CFU | survival of bacteria (CFU) ([1]; biocide 5 ppm as Cl2, contact time 0 min): 1.20E+07 CFU | survival of bacteria (CFU) ([1]; biocide 5 ppm as Cl2, contact time 5 min): 4.55E+06 CFU | survival of bacteria (CFU) ([1]; biocide 5 ppm as Cl2, contact time 15 min): 7.03E+05 CFU | survival of bacteria (CFU) ([1]; biocide 5 ppm as Cl2, contact time 30 min): 2.70E+03 CFU | survival of bacteria (CFU) ([1]; biocide 5 ppm as Cl2, contact time 60 min): 1.00 CFU | % kill ([2]; biocide 5 ppm, TOC 0 ppm): 96.9% | % kill ([2]; biocide 5 ppm, TOC 10 ppm): 86.0% | % kill ([2]; biocide 5 ppm, TOC 30 ppm): 30.6% | % kill ([2]; biocide 5 ppm, TOC 50 ppm): 30.6% | % kill ([2]; biocide 10 ppm, TOC 0 ppm): 99.9% | % kill ([2]; biocide 10 ppm, TOC 10 ppm): 98.8% | % kill ([2]; biocide 10 ppm, TOC 30 ppm): 95.4% | % kill ([2]; biocide 10 ppm, TOC 50 ppm): 88.3%
